# Data: US7951232B2, “Surface coating compositions and methods” (Elevance Renewable Sciences, Inc., priority 2006, dated 2011)
# Legend:
# [1] = tested on: Aureobasidium pullulans (ATCC 12536); assay: MIC on Potato Dextrose Agar surface; type: cell-based; settings: PDA agar, 25-30° C., least concentration that completely inhibited growth
# Description: The efficacy of antimicrobial compositions in accordance with aspects of the invention against the following organisms was determined as follows. The following organisms were incubated in the presence of varying concentrations of 9-decenoic acid (9-DA) on an agar surface: Aspergillus parasiticus (ATCC 56857), Trichoderma virens (ATCC 9645), Aureobasidium pullulans (ATCC 12536), Aspergillus flavus (ATCC 96045), Cladosporium cladosporiodes (ATCC 16022), Aspergillus flavus (ATCC 5917), Aspergillus oryzae (ATCC 10124), Aspergillus parasiticus (ATCC 13539), Ulocladium atrum (ATCC 52426), Candida albicans (ATCC 11651), Alternaria alternata (ATCC 52170), Stachybotrys chartarum (ATCC 16026), Aspergillus niger (ATCC 11414).
# Fungal spores were hydrated in 0.1% Tween 80 and then plated onto Potato Dextrose Agar (PDA) (Difco # 213400; Becton, Dickinson and Company, Sparks, Md.) and incubated at 25-30° C. for six (6) days. The spores were washed from the surface with 5 ml of 0.1% Tween 80 and enumerated.
# PDA plates were prepared according to the manufacturer's instructions through sterilization. The agar was tempered to approximately 50° C. and was filter sterilized. […]
# The agar plates were inoculated with the spore solution to achieve 10^2 spores/plate. […] The percent coverage of growth on the agar surface was recorded at each sample point.
# [2] = tested on: Aspergillus flavus, ATCC 9170; assay: Preservative effectiveness, USP <51>; type: cell-based
# Description: The effectiveness of 9-decenoic acid on Aspergillus and Penecillium which occasionally result in in-can spoilage of paint was determined using the protocol on preservative effectiveness found in the United States Pharmacopeia (USP), 25th Edition, 2002, USP <51>.
# Stock cultures of the fungi Aspergillus flavus, ATCC 9170 and Penecillium verrucosum, ATCC 18381 were cultured onto Sabouraud Dextrose Agar (SDA) and incubated at 25-30° C. for at least 1 week. The spores were washed form the agar surface with sterile saline, filtered through sterile glass wool, enumerated and stored under refrigeration for no longer than thirty days. On the day of the test, the suspension was diluted to approximately 10^8 CFU/ml.
# The 9-decenoic acid was diluted in the same manner as previously described to achieve, 0.25, 0.125, 0.0625, 0.03, 0.015, 0.0078 and 0.0039% and dispensed in 20 ml aliquots in sterile test tubes. For each concentration tested, a 0.1 ml aliquot of each inoculum was added to a final concentration of 10^5 to 10^6 CFU/ml. The tubes were incubated at room temperature and sampled on days 0, 1, 2, 4, 7, 14, 21 and 28.
# At each sample point, 1.0 ml aliquots were withdrawn, serially diluted and plated in triplicate on SDA. The plates were incubated at 25-30° C. for 3-7 days. The colonies were counted and the average CFU/ml was calculated. Controls for purity, viability and sterility were performed as described previously.
# According to the US Pharmacopoeia, a test compound is an effective preservative if the concentrations of viable fungi remain at or below the initial concentrations during the first fourteen days and after 28 days. According to this definition, 9-decenoic acid is an effective preservative against Aspergillus flavus and Penecillium verrucosum at concentrations as low at 0.078%. […] For A. flavus, 9-decenoic acid was fungicidal at 0.015% after 21 days and at day 0 at 0.03%.
compound,measurement,setting,value
C=CCCCCCCCC(=O)O [9-decenoic acid],MIC,[1],0.01%
same,Log reduction of organisms after exposure,"[2]; 0.0078%, exposure 0 days",0.2 log
same,Log reduction of organisms after exposure,"[2]; 0.0078%, exposure 1 day",0.3 log
same,Log reduction of organisms after exposure,"[2]; 0.0078%, exposure 2 days",0.2 log
same,Log reduction of organisms after exposure,"[2]; 0.0078%, exposure 4 days",0.4 log
same,Log reduction of organisms after exposure,"[2]; 0.0078%, exposure 7 days",0.4 log
same,Log reduction of organisms after exposure,"[2]; 0.0078%, exposure 14 days",0.4 log
same,Log reduction of organisms after exposure,"[2]; 0.0078%, exposure 21 days",0.8 log
same,Log reduction of organisms after exposure,"[2]; 0.0078%, exposure 28 days",0.8 log
same,Log reduction of organisms after exposure,"[2]; 0.015%, exposure 0 days",1.2 log
same,Log reduction of organisms after exposure,"[2]; 0.015%, exposure 1 day",2.9 log
same,Log reduction of organisms after exposure,"[2]; 0.015%, exposure 2 days",3.1 log
same,Log reduction of organisms after exposure,"[2]; 0.015%, exposure 4 days",3.9 log
same,Log reduction of organisms after exposure,"[2]; 0.015%, exposure 7 days",3.9 log
same,Log reduction of organisms after exposure,"[2]; 0.015%, exposure 14 days",4.8 log
same,Log reduction of organisms after exposure,"[2]; 0.015%, exposure 21 days",5.1 log
same,Log reduction of organisms after exposure,"[2]; 0.015%, exposure 28 days",4.8 log
same,Log reduction of organisms after exposure,"[2]; 0.03%, exposure 0 days",5.1 log
same,Log reduction of organisms after exposure,"[2]; 0.03%, exposure 1 day",5.1 log
same,Log reduction of organisms after exposure,"[2]; 0.03%, exposure 2 days",5.1 log
same,Log reduction of organisms after exposure,"[2]; 0.03%, exposure 4 days",5.1 log
same,Log reduction of organisms after exposure,"[2]; 0.03%, exposure 7 days",5.1 log
same,Log reduction of organisms after exposure,"[2]; 0.03%, exposure 14 days",5.1 log
same,Log reduction of organisms after exposure,"[2]; 0.03%, exposure 21 days",5.1 log
same,Log reduction of organisms after exposure,"[2]; 0.03%, exposure 28 days",5.1 log
same,Log reduction of organisms after exposure,"[2]; 0.0625%, exposure 0 days",5.1 log
same,Log reduction of organisms after exposure,"[2]; 0.0625%, exposure 1 day",5.1 log
same,Log reduction of organisms after exposure,"[2]; 0.0625%, exposure 2 days",5.1 log
same,Log reduction of organisms after exposure,"[2]; 0.0625%, exposure 4 days",5.1 log
same,Log reduction of organisms after exposure,"[2]; 0.0625%, exposure 7 days",5.1 log
same,Log reduction of organisms after exposure,"[2]; 0.0625%, exposure 14 days",5.1 log
same,Log reduction of organisms after exposure,"[2]; 0.0625%, exposure 21 days",5.1 log
same,Log reduction of organisms after exposure,"[2]; 0.0625%, exposure 28 days",5.1 log
same,time after which fungicidal,[2]; at 0.015%,21 days
same,time after which fungicidal,[2]; at 0.03%,0 days
